Assay results published in patent US20110044938A1 (NYCOMED GMBH, priority 2006, published 2011).

Legend:
[1] = system: RKO (RKOp27) human colon adenocarcinoma cells; assay: Alamar Blue cell viability assay, anti-proliferative/cytotoxic activity on proliferating RKO subclones; type: cell-based; details: RKOp27, 72 h, RKO p27 uninduced (proliferating) cells, value = class bound given in Table A, read-out: −logIC50 RKO p27 uninduced (proliferating) (converted)
In short: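 Alamar Blue fluorescence (ex 544, em 590 nm) after 72 h compound exposure at 37 °C, 5% CO2, normalised to untreated controls set at 100%. Cells were seeded at 5000 per well and dosed 24 h later with serial semi-logarithmic dilutions in 10% FCS DMEM, four replicates each. −log IC50 [mol/l] was derived from concentration-effect curves.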

[2] = system: subclones of RKO colon adenocarcinoma cells (RKOp27 or RKOp21) arrested by Ponasterone A; assay: Alamar Blue cell viability assay, cell cycle specific mode of action: cells arrested by ectopic p27Kip1 induced by Ponasterone A versus proliferating cells; type: cell-based; details: Homo sapiens, RKO p27 induced (arrested) cells, 10 μM Ponasterone A, 72 hours, value = class bound given in Table A, read-out: −logIC50 RKO p27 induced (arrested) (converted)
In short: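 Viability of proliferating versus Ponasterone A (10 μM)-arrested RKOp27/RKOp21 cells after 72 h compound exposure at 37° C, in quadruplicate. Read-out is Alamar Blue fluorescence (544/590 nm) normalised to untreated cells = 100%; values as −log IC50.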

SMILES | IC50 [1] [nM] | IC50 [2] [nM]
CCn1nccc1CNC(=O)OCC1CCc2c(sc(NC(=O)CC(C)c3cccc(OC)c3)c2C#N)C1 (stereo not drawn) [Example 341, (2-Ethyl-2H-pyrazol-3-ylmethyl)-carbamic acid 3-cyano-2-[3-(3-methoxy-phenyl)-butanoylamino]-4,5,6,7-tetrahydro-benzo[b] thiophen-6-ylmethyl ester] | 501 to 2000 | ≥ 50100
CC(CC(=O)Nc1sc2c(c1C#N)CCC(COC(=O)NCc1ccccc1)C2)c1ccccn1 (stereo not drawn) [Example 343, Benzyl-carbamic acid 3-cyano-2-(3-pyridin-2-yl-butanoyl-amino)-4,5,6,7-tetrahydro-benzo[b] thiophen-6-ylmethyl ester] | ≤ 501 | ≥ 50100
Cc1nc(CNC(=O)OC2CCc3c(sc(NC(=O)CC(C)c4ccccc4)c3C#N)C2)cs1 (stereo not drawn) [Example 351, (2-Methyl-thiazol-4-ylmethyl)-carbamic acid 3-cyano-2-(3-phenyl-butanoylamino)-4,5,6,7-tetrahydro-benzo[b] thiophen-6-yl ester] | ≤ 501 | ≥ 100000
Cc1nocc1CNC(=O)OCC1CCc2c(sc(NC(=O)CC(C)c3ccccc3)c2C#N)C1 (stereo not drawn) [Example 352, (3-Methyl-isoxazol-4-ylmethyl)-carbamic acid 3-cyano-2-(3-phenyl-butanoylamino)-4,5,6,7-tetrahydro-benzo[b]thiophen-6-ylmethyl ester] | ≤ 501 | ≥ 100000
CC(CC(=O)Nc1sc2c(c1C#N)CCC(COC(=O)NCc1ccno1)C2)c1ccccc1 (stereo not drawn) [Example 353, Isoxazol-5-ylmethyl-carbamic acid 3-cyano-2-(3-phenyl-butanoylamino)-4,5,6,7-tetrahydro-benzo[b] thiophen-6-ylmethyl ester] | ≤ 501 | ≥ 100000
Cc1oncc1CNC(=O)OC1CCc2c(sc(NC(=O)CC(C)c3cccnc3)c2C#N)C1 (stereo not drawn) [Example 354, (5-Methyl-isoxazol-4-ylmethyl)-carbamic acid 3-cyano-2-(3-pyridin-3-yl-butanoylamino)-4,5,6,7-tetrahydro-benzo[b] thiophen-6-yl ester] | 501 to 2000 | ≥ 100000
Cc1nocc1CNC(=O)OC1CCc2c(sc(NC(=O)CC(C)c3cccnc3)c2C#N)C1 (stereo not drawn) [Example 355, (3-Methyl-isoxazol-4-ylmethyl)-carbamic acid 3-cyano-2-(3-pyridin-3-yl-butanoylamino)-4,5,6,7-tetrahydro-benzo[b] thiophen-6-yl ester] | 501 to 2000 | ≥ 100000
CC(CC(=O)Nc1sc2c(c1C#N)CCC(OC(=O)OCc1cncs1)C2)c1cccnc1 (stereo not drawn) [Example 356, Carbonic acid 3-cyano-2-(3-pyridin-3-yl-butanoylamino)-4,5,6,7-tetrahydro-benzo[b] thiophen-6-yl ester thiazol-5-ylmethyl ester] | 501 to 2000 | ≥ 100000
CC(CC(=O)Nc1sc2c(c1C#N)CCC(COC(=O)N1CCCC1)C2)c1cccnc1 (stereo not drawn) [Example 357, Pyrrolidine-1-carboxylic acid 3-cyano-2-(3-pyridin-3-yl-butanoylamino)-4,5,6,7-tetrahydro-benzo[b]thiophen-6-ylmethyl ester] | ≤ 501 | ≥ 100000
Cc1oncc1CNC(=O)OC1CCc2c(sc(NC(=O)CC(C)c3ccccc3)c2C#N)C1 (stereo not drawn) [Example 358, (5-Methyl-isoxazol-4-ylmethyl)-carbamic acid 3-cyano-2-(3-phenyl-butanoylamino)-4,5,6,7-tetrahydro-benzo[b]thiophen-6-yl ester] | ≤ 501 | ≥ 100000
Cc1nocc1CNC(=O)OC1CCc2c(sc(NC(=O)CC(C)c3ccccc3)c2C#N)C1 (stereo not drawn) [Example 359, (3-Methyl-isoxazol-4-ylmethyl)-carbamic acid 3-cyano-2-(3-phenyl-butanoylamino)-4,5,6,7-tetrahydro-benzo[b] thiophen-6-yl ester] | ≤ 501 | ≥ 100000
CC(CC(=O)Nc1sc2c(c1C#N)CCC(OC(=O)N1CCCC1)C2)c1ccccc1 (stereo not drawn) [Example 360, Pyrrolidine-1-carboxylic acid 3-cyano-2-(3-phenyl-butanoylamino)-4,5,6,7-tetrahydro-benzo[b] thiophen-6-yl ester] | ≤ 501 | ≥ 100000
COc1cccc(C(C)CC(=O)Nc2sc3c(c2C#N)CCC(OC(=O)NCc2conc2C)C3)c1 (stereo not drawn) [Example 361, (3-Methyl-isoxazol-4-ylmethyl)-carbamic acid 3-cyano-2-[3-(3-methoxy-phenyl)-butanoyl-amino]-4,5,6,7-tetrahydro-benzo[b] thiophen-6-yl ester] | ≤ 501 | ≥ 100000
COc1cccc(C(C)CC(=O)Nc2sc3c(c2C#N)CCC(OC(=O)NCc2cc(C)no2)C3)c1 (stereo not drawn) [Example 362, (3-Methyl-isoxazol-5-ylmethyl)-carbamic acid 3-cyano-2-[3-(3-methoxy-phenyl)-butanoyl-amino]-4,5,6,7-tetrahydro-benzo[b]thiophen-6-yl ester] | 501 to 2000 | ≥ 100000
COc1cccc(C(C)CC(=O)Nc2sc3c(c2C#N)CCC(COC(=O)NCc2csc(C)n2)C3)c1 (stereo not drawn) [Example 363, (2-Methyl-thiazol-4-ylmethyl)-carbamic acid 3-cyano-2-[3-(3-methoxy-phenyl)-butanoyl-amino]-4,5,6,7-tetrahydro-benzo[b]thiophen-6-ylmethyl ester] | 501 to 2000 | ≥ 100000
COc1cccc(C(C)CC(=O)Nc2sc3c(c2C#N)CCC(COC(=O)NCc2cc(C)no2)C3)c1 (stereo not drawn) [Example 364, (3-Methyl-isoxazol-5-ylmethyl)-carbamic acid 3-cyano-2-[3-(3-methoxy-phenyl)-butanoyl-amino]-4,5,6,7-tetrahydro-benzo[b]thiophen-6-ylmethyl ester] | ≤ 501 | ≥ 100000
COc1cccc(C(C)CC(=O)Nc2sc3c(c2C#N)CCC(COC(=O)NCc2conc2C)C3)c1 (stereo not drawn) [Example 365] | 501 to 2000 | ≥ 100000
CC(CC(=O)Nc1sc2c(c1C#N)CCC(OC(=O)N1CCOCC1)C2)c1ccccc1 (stereo not drawn) [Example 366, Morpholine-4-carboxylic acid 3-cyano-2-(3-phenyl-butanoyl-amino)-4,5,6,7-tetrahydro-benzo[b] thiophen-6-yl ester] | ≤ 501 | ≥ 50100
CC(CC(=O)Nc1sc2c(c1C#N)CCC(COC(=O)N1CCOCC1)C2)c1cccnc1 (stereo not drawn) [Example 367, Morpholine-4-carboxylic acid 3-cyano-2-(3-pyridin-3-yl-butanoylamino)-4,5,6,7-tetrahydro-benzo[b]thiophen-6-ylmethyl ester] | 501 to 2000 | ≥ 50100
CC(CC(=O)Nc1sc2c(c1C#N)CCC(OC(=O)OCc1nccs1)C2)c1ccccc1 (stereo not drawn) [Example 368, Carbonic acid 3-cyano-2-(3-phenyl-butanoylamino)-4,5,6,7-tetrahydro-benzo[b]thiophen-6-yl ester thiazol-2-ylmethyl ester] | 501 to 2000 | ≥ 50100
CC(CC(=O)Nc1sc2c(c1C#N)CCC(OC(=O)N1CCCC1)C2)c1cccnc1 (stereo not drawn) [Example 369, Pyrrolidine-1-carboxylic acid 3-cyano-2-(3-pyridin-3-yl-butanoylamino)-4,5,6,7-tetrahydro-benzo[b]thiophen-6-yl ester] | 501 to 2000 | ≥ 50100
Cc1cc(CNC(=O)OCC2CCc3c(sc(NC(=O)CC(C)c4cccnc4)c3C#N)C2)on1 (stereo not drawn) [Example 370, (3-Methyl-isoxazol-5-ylmethyl)-carbamic acid 3-cyano-2-(3-pyridin-3-yl-butanoylamino)-4,5,6,7-tetrahydro-benzo[b] thiophen-6-ylmethyl ester] | 501 to 2000 | ≥ 50100
CC(CC(=O)Nc1sc2c(c1C#N)CCC(COC(=O)N1CCCC1)C2)c1ccccn1 (stereo not drawn) [Example 371, Pyrrolidine-1-carboxylic acid 3-cyano-2-(3-pyridin-2-yl-butanoylamino)-4,5,6,7-tetrahydro-benzo[b]thiophen-6-ylmethyl ester] | 501 to 2000 | ≥ 50100
CC(CC(=O)Nc1sc2c(c1C#N)CCC(OC(=O)NCc1ccno1)C2)c1ccccc1 (stereo not drawn) [Example 372, (Isoxazol-5-ylmethyl)-carbamic acid 3-cyano-2-(3-phenyl-butanoylamino)-4,5,6,7-tetrahydro-benzo[b]thiophen-6-yl ester] | ≤ 501 | ≥ 50100
Cc1cc(CNC(=O)OC2CCc3c(sc(NC(=O)CC(C)c4ccccc4)c3C#N)C2)on1 (stereo not drawn) [Example 373, (3-Methyl-isoxazol-5-ylmethyl)-carbamic acid 3-cyano-2-(3-phenyl-butanoylamino)-4,5,6,7-tetrahydro-benzo[b]thiophen-6-yl ester] | ≤ 501 | ≥ 50100
COc1cccc(C(C)CC(=O)Nc2sc3c(c2C#N)CCC(OC(=O)N2CCOCC2)C3)c1 (stereo not drawn) [Example 374, Morpholine-4-carboxylic acid 3-cyano-2-(3-(3-methoxy-phenyl)-butanoylamino)-4,5,6,7-tetrahydro-benzo[b] thiophen-6-yl ester] | ≤ 501 | ≥ 50100
CC(CC(=O)Nc1sc2c(c1C#N)CCC(OC(=O)OCc1cncs1)C2)c1ccccc1 (stereo not drawn) [Example 375, Carbonic acid 3-cyano-2-(3-phenyl-butanoyl-amino)-4,5,6,7-tetrahydro-benzo[b] thiophen-6-yl ester thiazol-5-ylmethyl ester] | ≤ 501 | ≥ 10000
